Data taken from patent US8134032B2, “Crystalline modifications of (1R,2R)-3-(3-dimethylamino-1-ethyl-2-methyl-propyl)-phenol” (priority 2007, dated 2012).

What was measured:
Assay type in all cases: physicochemical
[1] = solubility in solvents; conditions: in saturated hydrocarbons (n-pentane, n-hexane, n-heptane) and water
Excerpt: Conventional organic solvents known to persons skilled in the art may be used as solvents in a solution of this type, in particular alcohols such as methanol, ethanol, 1-propanol and 2-propanol, esters such as ethyl acetate, ketones such as acetone and ethylmethyl ketone, ethers such as diethyl ether, tert-butyl methyl ether, 1,4-dioxane and tetrahydrofuran, nitriles such as acetonitrile, chlorinated hydrocarbons such as dichloromethane, aromatic hydrocarbons such as toluene, and also dimethyl formamide and dimethyl sulfoxide.

[2] = crystallization of amorphous oily residues on storage (Example 1); conditions: stored at RT or at 5° C.
Protocol: Amorphous (1R,2R)-3-(3-dimethylamino-1-ethyl-2-methyl-propyl)-phenol was obtained by rapid evaporation of a solution of the compound on a rotary evaporator. The oily residues were stored at RT or at 5° C. All the samples crystallized within 24 hours.

[3] = physical stability of amorphous modification (Example 7)
Protocol: Attempts were made to produce the amorphous modification of (1R,2R)-3-(3-dimethylamino-1-ethyl-2-methyl-propyl)-phenol by evaporation, lyophilization or melting.
7.1) 150 mg (1) were dissolved in 3 ml MeOH. The solvent was removed on a rotary evaporator. A colourless oil remained. The residue was dried in a vacuum.
7.2) 150 mg (1) were dissolved in 2 ml 1,4-dioxane. The solvent was removed by freeze-drier.
7.3) 150 mg (1) were dissolved in 2 ml 1,4-dioxane. The solvent was removed by freeze-drier (−85° C., 0.5 mbar). A colourless residue remained and crystallized spontaneously before it was possible to perform a PXRD analysis. […] The melt was frozen with dry ice. An amorphous film was obtained which crystallized within 1 hour.

[4] = mechanical stress: ball mill grinding and tablet compaction (Example 8); conditions: for modification obtained after tablet compaction: IR tablet press, pressure 10 t, 30 min; for modification obtained after grinding in ball mill: shaking frequency 30 sec^-1, RT, 2x90 min, 1x60 min
Protocol: The effect of mechanical stress from grinding with a ball mill (model Retsch MM200, agate vessel and agate ball with 5 mm diameter) and from pressure during the production of a tablet was analysed.
8.1) A tablet was produced with 100 mg (1) on an IR tablet press (pressure 10 t, 30 min).
8.4) 15 mg of the crystalline form A were ground in a ball mill (shaking frequency: 30 sec^−1, RT) as follows: 2×90 min, 1×60 min, 2×30 min discontinuation.

[5] = rate of dissolution in water, second determination (tablets); conditions: for rate of dissolution: tablets, in water
Protocol: (§1) To analyse the rate of dissolution of modifications A and B in water, two different determinations were carried out.

[6] = dynamic vapor sorption (DVS); conditions: 25° C.; for changes in mass (DVS): dynamic mode, 5% relative air humidity/hour; for hygroscopicity: DVS
Protocol: Crystalline modifications A and B of (1R,2R)-3-(3-dimethylamino-1-ethyl-2-methyl-propyl)-phenol were each characterized by dynamic vapor sorption (DVS). The analyses were recorded in dynamic mode (5% relative air humidity/hour).
The DVS cycles are reversible.

[7] = suspension of modification B in various solvents (Example 6); conditions: 2 days; for modification obtained after suspension: stirred at RT
Protocol: It was possible to exclude the formation of solvates with the selected solvents.
6.1) 200 mg (1) were suspended in 500 μl TBME. The mixture was stirred at RT for a duration of 2 days and the resulting solid was filtered out.
6.2) 100 mg (1) were suspended in 500 μl heptane/TBME (1:1). The mixture was stirred at RT for a duration of 2 days and the resulting solid was filtered out.
6.3) 100 mg (1) were suspended in 500 μl H2O. The mixture was stirred at RT for a duration of 2 days and the resulting solid was filtered out.
6.4) 100 mg (1) were suspended in 500 μl IPE. The mixture was stirred at RT for a duration of 2 days and the resulting solid was filtered out.
6.5) 100 mg (1) were suspended in 500 μl H2O/EtOH. The mixture was stirred at RT for a duration of 2 days and the resulting solid was filtered out.

[8] = rate of dissolution in water, first determination (stirred suspension); conditions: particle size distribution not taken into account
Protocol: as §1
Under these conditions, the particle size affects the result.

[9] = relative thermodynamic stability, suspension of mixtures of modifications A and B (Example 9); conditions: temperature range of 5-85° C., preferably 5-50° C.
Protocol: The suspension was shaken overnight in an Eppendorf Thermomixer at RT. The obtained solid was filtered out and characterized by FT Raman spectral analysis. […] The suspension was shaken overnight in an Eppendorf Thermomixer at RT. The resulting solid was filtered out and characterized by FT Raman spectral analysis. […] The suspension was stirred for three days at 5° C. The obtained solid was filtered out and characterized by FT Raman spectral analysis. […] The suspension was stirred overnight at 50° C. […] All solid components were dissolved. After cooling to RT, small amounts of a colourless solid were precipitated. The solvent was removed in a nitrogen flow. […]

CC[C@@H](c1cccc(O)c1)[C@@H](C)CN(C)C [(1R,2R)-3-(3-dimethylamino-1-ethyl-2-methyl-propyl)-phenol]
solubility [1]: only poorly soluble

CC[C@@H](c1cccc(O)c1)[C@@H](C)CN(C)C [amorphous modification, (1R,2R)-3-(3-dimethylamino-1-ethyl-2-methyl-propyl)-phenol]
time until amorphous oily residues crystallized [2]: ≤ 24 h | crystallization of amorphous samples ([3]; amorphous samples from evaporation, lyophilization or melting): crystallized within hours | time until amorphous film crystallized ([3]; melted at 88-91° C., melt frozen with dry ice): ≤ 1 h

CC[C@@H](c1cccc(O)c1)[C@@H](C)CN(C)C [modification A, (1R,2R)-3-(3-dimethylamino-1-ethyl-2-methyl-propyl)-phenol]
modification obtained after tablet compaction [4]: Modification A | modification obtained after grinding in ball mill [4]: converted into modification B | modification obtained after grinding in ball mill ([4]; listed as form A): Modification B | polymorphic conversion during dissolution determination ([5]; tablets in water, analysed with FT Raman): converted into form B | rate of dissolution [5]: 0.003 mg/min cm^2 | changes in mass (DVS) [6]: 0.8% | hygroscopicity [6]: not or at most slightly hygroscopic

CC[C@@H](c1cccc(O)c1)[C@@H](C)CN(C)C [modification B, (1R,2R)-3-(3-dimethylamino-1-ethyl-2-methyl-propyl)-phenol]
modification obtained after suspension ([7]; H2O): modification B | modification obtained after suspension ([7]; H2O/EtOH): modification B | modification obtained after suspension ([7]; IPE): modification B | modification obtained after suspension ([7]; TBME): modification B | modification obtained after suspension ([7]; heptane/TBME (1:1)): modification B | change upon suspension in various solvents ([7]; various solvents, RT): no change | rate of dissolution, comparison of forms [8]: dissolves more rapidly | modification obtained after tablet compaction ([4]; listed as (1)): Modification B | modification obtained after grinding in ball mill [4]: Modification B | rate of dissolution [5]: 0.003 mg/min cm^2 | thermodynamic stability of the form [9]: most thermodynamically stable form | changes in mass (DVS) [6]: 0.3% | hygroscopicity [6]: not or at most slightly hygroscopic
